Test results as given in PMC4552634, “A New Set of Chemical Starting Points with Plasmodium falciparum Transmission-Blocking Potential for Antimalarial Drug Discovery” (PLoS ONE, 2015).
Like-named read-outs stand apart in the source and are kept apart here.

What was measured:
[1] = tested on: HepG2 cells; experiment: Cytotoxicity in HepG2 cells (intracellular ATP, ATPlite, 48 h); type: cell-based, human; conditions: HepG2 cells; IC50 per ratio column head; unit inferred
[2] = tested on: P. falciparum asexual stages; conditions: asexual stages; TCAMS data; read-out: IC50 asexual; cited from earlier work
[3] = tested on: luciferase reaction (BacTiter-Glo); experiment: Interference assay (inhibition of the BacTiter-Glo luciferase reaction); type: biochemical; design: concentration or dose not given beside the values; conditions: ATP interference assay
Procedure: To discard possible false-positive results, we performed an interference assay in parallel. […] […]. The ATP solution was made by dissolving ATP powder (ATP standard from the ATPlite 1 step assay kit, reference 6016731, Perkin Elmer) in culture medium. The positive control used was the Luciferase Inhibitor I Calbiochem (Merck, 119113) at 100 μM.

[4] = tested on: P. falciparum stage V gametocytes; experiment: Gametocytocidal ATP bioluminescence assay (single point 5 μM and 1 μM, dose-response); type: cell-based, Plasmodium falciparum; conditions: for Ratio IC50 HepG2/IC50 P. falciparum: IC50 HepG2 divided by IC50 P. falciparum gametocytes
Procedure: Purified stage IV-V gametocytes were obtained as previously described [10]. Single point ATP bioluminescence assay and dose–response of positive hits was determined in accordance with the previously published protocol [10].

[5] = P. falciparum gametocytes, average, read-out: IC50 Pf Gametocytes average, IC50 (µM) average
[6] = sexual stages (gametocytes), dose-response, read-out: IC50 sexual

SMILES | IC50 [1] | IC50 [2] | % Control luminiscence [3] | Ratio IC50 HepG2/IC50 P. falciparum [4] | IC50 [4, 5] | IC50 [4, 6]
CN1CCN(CC2(Nc3nccc(NCCc4cn(C)c5ccccc45)n3)CCCCC2)CC1 [TCMDC-135122] | 6.94 µM | 1810 nM | 95% | 10 | 0.7 µM | 0.697 µM
Cc1occc1C(=O)Nc1nc(-c2ccccn2)nc2ccsc12 [TCMDC-135244] | < 1.56 µM | 899 nM | 99% | <5 | 0.3 µM | 0.303 µM
Cc1cccc(-c2nc(Nc3ccncc3)c3cc(N(C)C)ccc3n2)n1 [TCMDC-135308] | > 25 µM | 710 nM | 98% | >9 | 2.66 µM | 
COc1cc(NC(=O)c2sc(-c3ccc(Cl)cc3)cc2NC(=O)c2ccncc2)ccc1OCCN1CCCC1 [TCMDC-135398] | 3.23 µM | 31 nM | 100% |  | 0.15 µM | 
CCN(CC)CCCNc1nccc(N2CCc3ncnc(Nc4ccc(OCc5cccc(F)c5)c(Cl)c4)c3C2)n1 [TCMDC-135406] | 5.58 µM | 111 nM | 100% | 8 | 0.72 µM | 0.715 µM
CNCCNc1nccc(N2CCc3ncnc(Nc4ccc(OCc5cccc(F)c5)c(Cl)c4)c3C2)n1 [TCMDC-135478] | 7.16 µM | 197 nM | 98% | 11 | 0.67 µM | 0.665 µM
COC(=O)c1sc(-c2ccc(Cl)cc2)cc1N(CCCN1CCC(N2CCCCC2)CC1)S(=O)(=O)c1ccc(C)cc1 [TCMDC-135561] | 4.37 µM | 744 nM | 93% | 1.3 | 3.36 µM | 3.37 µM
c1ccc2c(C3CCN(CCCCOc4ccc5c(c4)CCN(CC4CC4)CC5)CC3)c[nH]c2c1 [TCMDC-136244] | 6.81 µM | 982 nM | 100% | 10 | 0.71 µM | 
C[C@H]1CN(Cc2cccc(-c3cc(CNC(=O)c4cccc(CC5CCN(C)CC5)c4)ccc3F)c2)CCN1C [TCMDC-136349] | 6.97 µM | 1090 nM | 100% | 8 | 0.85 µM | 
CN(C)Cc1ccc(-c2cccc(Nc3nccc(NCC(O)c4ccccc4)n3)c2)cc1 (centres unmarked) [TCMDC-136467] | 5.87 µM | 373 nM | 100% | 6.52 | 0.9 µM | 
Cc1cc(OCCN2CCCCC2)ccc1NC(=O)c1cccc2c(=O)n(Cc3ccc(Cl)cc3)cnc12 [TCMDC-136727] | 4.73 µM | 1060 nM | 97% | 5 | 0.95 µM | 
COc1cc2c(cc1CCNCCCCNCCc1cc3c(cc1OC)CCCC3)CCCC2 [TCMDC-137319] | < 1.56 µM | 996 nM | 85% | <19 | 0.08 µM | 0.084 µM
C=CCNC(CCCCC)c1ccc(OCCOc2ccc(C(CCCCC)NCC=C)cc2)cc1 (centres unmarked) [TCMDC-137483] | 5.8 µM | 567 nM | 100% | 6.41 | 0.91 µM | 0.905 µM
CCCCC(NCC)c1ccc(OCCOc2ccc(C(CCCC)NCC)cc2)cc1 (centres unmarked) [TCMDC-137612] | 6.1 µM | 930 nM | 100% | 14 | 0.42 µM | 0.423 µM
CCCCCCC(N)c1ccc(OCCCOc2ccc(C(N)CCCCCC)cc2)cc1 (centres unmarked) [TCMDC-137621] | 1.9 µM | 1140 nM | 100% | 36 | 0.0533 µM | 0.053 µM
COc1ccc(CNCCCCCCNCc2ccc(OC)c3ccccc23)c2ccccc12 [TCMDC-137631] | 3.06 µM | 581 nM | 91% | 6 | 0.51 µM | 0.505 µM
CN1CCN(CCNc2c3ccccc3nc3c2ccc2ccccc23)CC1 [TCMDC-137723] | 6.6 µM | 606 nM | 100% | 17 | 0.39 µM | 0.387 µM
c1cc(C2=NC3CCCCC3N2)ccc1OCCCCCOc1ccc(C2=NC3CCCCC3N2)cc1 (centres unmarked) [TCMDC-137802] | 3.74 µM | 228 nM | 100% | 13 | 0.28 µM | 
Nc1nc(N)c2c(ccc3c2ccn3Cc2ccc(-c3ccccc3)cc2)n1 [TCMDC-137813] | 1.6 µM | 48 nM | 100% | 1.1 | 1.45 µM | 1.45 µM
CN(CCCNCc1cccc2ccccc12)CCCNCc1cccc2ccccc12 [TCMDC-137905] | 5.72 µM | 722 nM | 100% | 25 | 0.23 µM | 
CN(CCCNCc1ccc2ccccc2c1)CCCNCc1ccc2ccccc2c1 [TCMDC-137908] | 4.68 µM | 391 nM | 100% | 94 | 0.05 µM | 
CCCOc1ccc(CCNCCCCNCCc2ccc(OCCC)c3ccccc23)c2ccccc12 [TCMDC-137952] | 2.6 µM | 917 nM | 100% | 31 | 0.08 µM | 0.083 µM
COc1ccc(CCNCCCCNCCc2ccc(OC)c3ccccc23)c2ccccc12 [TCMDC-137961] | 3.14 µM | 453 nM | 95% | <0.6 | > 5 µM | 
CCOCn1c(-c2ccccc2)cc2c3c(N)nc(N)nc3ccc21 [TCMDC-137979] | 5.65 µM | 186 nM | 94% | 4.35 | 1.3 µM | 
Cc1ccc(C(=O)Nc2ccc(Nc3ccnc4cc(-c5ccccn5)ccc34)cc2O)cc1 [TCMDC-138205] | 3.11 µM | 111 nM | 100% | 6.48 | 0.48 µM | 
CN(C)CCNCc1cccc(-c2ccc3c(Nc4ccc(Oc5ccccn5)cc4)ccnc3c2)c1 [TCMDC-138493] | 4.49 µM | 233 nM | 100% | 20 | 0.22 µM | 
CS(=O)(=O)CCNCc1nc(-c2ccc3c(=O)[nH]cnc3c2)cs1 [TCMDC-138539] | 4.2 µM | 1010 nM | 98% | 1.57 | 2.68 µM | 
CN1CCN(CCCNCc2cccc(Nc3nccc(Nc4ccc(Oc5ccccc5)cc4)n3)c2)CC1 [TCMDC-138616] | 5.17 µM | 765 nM | 100% | 16 | 0.32 µM | 
